According to PMC3332081, “Cysteamine Suppresses Invasion, Metastasis and Prolongs Survival by Inhibiting Matrix Metalloproteinases in a Mouse Model of Human Pancreatic Cancer” (PLoS ONE, 2012):

Columns and labels:
MMP-12 [1] = biological target: T1, MMP-12 (Homo sapiens, UniProt P39900); experiment: fluorimetric MMP inhibitor profiling, MMP-12; format: biochemical; settings: 30 minutes preincubation, fluorogenic substrate
T1 construct: purchased Enzo Life Science, Farmingdale, NY
Protocol: (§1) After administration of fluorogenic substrate, a velocity of fluorescent increase was measured using excitation/emission = 320/405 nm.

[2] = set-up: method as in PMID 11060801; settings: cited from earlier work
MMPs = experiment: fluorimetric MMP inhibitor profiling, span over all MMPs; format: biochemical; settings: MMP-1, -2, -3, -7, -8, -9, -10, -12, -13, -14; read-out: IC50 against each MMP enzymatic activity (span over the MMPs)
Protocol: as §1

[3] = test system: pancreatic cancer cell lines; experiment: matrigel invasion assay; format: cell-based, human
Protocol: Cell invasion was assayed in BD BioCoat Matrigel invasion chambers (BD Biosciences; 24 wells, 8 µm pore size) as described previously. Briefly, cells were incubated with different concentrations of cysteamine (0–5 mM) for 24 hours. Non-invaded cells were removed from the upper surface of the membrane with a cotton swab, and cells on the lower surface of the membrane were fixed and stained with H&E. Three random fields per chamber were counted. Data were shown as mean ± S.D. of triplicate determinations.

[4] = test system: pancreatic cancer cell lines; experiment: cell migration (wound healing) assay; format: cell-based, human
Protocol: Cell migration assay is a classical wound healing assay. For this assay, cells were cultured in 10 cm petri dishes until they were completely confluent. Cell monolayers were scraped with a sterile yellow micropipette tip and washed with PBS three times; the cells were then cultured in medium containing 0–5 mM of cysteamine for 24 hours. Five random fields were selected and pictures were taken using an inverted microscope. The average area (mm^2) of the gap between the cell layers was calculated using IPLab imaging software (BD Biosciences-Bioimaging, Rockville, MD).

HS766T [5] = experiment: cell viability assay (trypan blue count), HS766T; format: cell-based, human; settings: 24 and 48 hour treatment, viable cell count
Protocol: (§2) Cell viability of pancreatic cancer cell lines was measured by counting viable cell numbers. Briefly, 3×10^5 cells were seeded per well in a 6-well plate with 2.0 milliliter complete medium and incubated overnight for plating. The cells were treated with different concentrations of cysteamine for 24–48 hours. After incubation, cells were detached with trypsin, washed and stained with 0.4% trypan blue. Cell number was manually counted using a hemocytometer and presented as number of viable cells per milliliter.

MIA-PaCa2 [6] = experiment: cell viability assay (trypan blue count), MIA-PaCa2; format: cell-based, human
Protocol: as §2

[7] = test system: total MMPs activity in pancreatic cancer cell lines; experiment: total MMPs activity in lysates of treated cells (fluorogenic substrate); format: cell-based, human; settings: two representative pancreatic cancer cell lines, 0–5 mM, 24 hours
Protocol: (§3) MMPs activity was measured by Mca-KPLGL-Dpa-AR-NH2 Fluorogenic Peptide Substrate (R&D systems, Emeryville, CA). Total cell protein from each pancreatic cancer cell line was collected using lysis buffer (containing 50 mM Tris-HCl, 10 mM CaCl2, 0.05% Brij35 and 0.25% Triton-X) without an MMP inhibitor. Substrate and 10 µg of total cell protein in the buffer were mixed in a black-wall 96-well plate. After 1 hour incubation, fluorescence units were determined using excitation/emission = 320/405 nm.

MMP-9 [8] = experiment: MMP-9 protein level in treated cells (ELISA); format: cell-based, human; settings: 5 mM (highest concentration), 24 hours, both cell lines
Protocol: (§4) The MMP-9 protein level was determined using Human total MMP-9 DuoSet kit (R&D systems, Emeryville, CA) following the manufacturer's instruction. Ten microgram of total protein was aliquoted in each well and the MMP-9 concentration was determined by the colorimetric method.

MMP-9 [9] = experiment: MMP-9 mRNA in treated cells (qRT-PCR); format: cell-based, human; settings: 5 mM (highest concentration), 24 hours, both cell lines
Protocol: (§5) Quantitative reverse transcription-PCR (qRT-PCR) was performed as described previously using QuantiTect SYBR Green PCR Kits (QIAGEN, Valencia, CA). Gene specific primers for human MMP-9, MMP-12, MMP-14 and β-actin were either purchased from QIAGEN or synthesized at the CBER core facility. Gene expression was normalized to β-actin before the fold change in gene expression was determined.

MMP-12 [10] = experiment: MMP-12 mRNA in treated cells (qRT-PCR); format: cell-based, human; settings: 24 hours, highest concentration
Protocol: as §5

MMP-14 = MMP-14 mRNA in treated cells (qRT-PCR); format: cell-based, human; settings: 24 hours, highest concentration
Protocol: as §5

MMP-9 [11] = experiment: gelatin gel zymography of treated cells; format: cell-based, human; settings: cell lysates after 24 hours
Protocol: (§6) Gelatin gel zymography was performed on cell lysates from HS7666 and MIA-PaCa2 pancreatic cancer cell line with or without culture with different concentration of cysteamine essentially as described by D'Angelo et al. Briefly, 50 µg of total protein was electrophoresed on 10% SDS-PAGE containing 0.1% gelatin as substrate. After washing with 1% Triton X-100 in 50 mM Tris/HCl, pH 7.5 for 1 hr to remove SDS, the gels were incubated overnight at 37 °C in 50 mM Tris/HCl, pH 7.5, containing 150 mM NaCl, 10 mM CaCl2 and 0.1% Triton X-100, prior to staining with simply blue safe stain. The gels were washed with deionized water at room temperature. […] Relevant band intensities were quantified by scanning densitometric analysis and normalized to cell number.

HS766T [12] = experiment: orthotopic pancreatic cancer model, HS766T; format: in vivo, nude nu/nu mice
Protocol: (§7) Female nude nu/nu mice between ages 5 and 6 weeks were maintained in a barrier facility in HEPA-filtered rack. All animal studies were conducted under approved protocol #2000–06 by the CBER Institutional Animal Care and Use Committee in accordance with the principles and procedures outlined in the NIH Guideline for the Care and Use of Laboratory Animals. For orthotopic tumor cell injection, the pancreas was carefully exposed, and 2.0×10^6 of MIA-PaCa2 and HS766T cells were injected into the organ. The pancreas was then returned to the peritoneal cavity, and the abdominal wall and skin were closed with skin clips,[30]. From day 4 after tumor implantation, increasing doses of cysteamine (0, 25, 100, or 250 mg/kg/day) were subcutaneously injected twice a day until the end of the experiment. At day 30, mice were sacrificed and the number of metastatic nodules visible by naked eye and whose sizes were >5 mm in diameter counted. The total weight of primary tumor and metastatic nodules were also measured. Pictures were taken immediately after sacrificing the animals. Additionally, mouse survival time was monitored in an independent experiment. Mice were sacrificed when they had severe ascites or cachexia. Mice in both tumor models were weighed at day 10 and day 25 after Cysteamine treatment.

MIA-PaCa2 [13] = experiment: orthotopic pancreatic cancer model, MIA-PaCa2; format: in vivo, nude nu/nu mice
Protocol: as §7

[14] = safety in tumor-bearing mice (body weight, serum enzymes, histology); format: in vivo, nude nu/nu mice
Protocol: as §7
Mouse blood was collected from the tail vein. Serum levels of alanine aminotransferase (ALT), creatine kinase (CK), aldolase and creatinine (Cr) were measured using different kits obtained from Pointe Scientific, Inc. (Canton, MI) and Caldon Biotech, Inc. (Vista, Ca), following the manufacturer's instruction.

[15] = test system: MMPs activity in primary orthotopic tumors (HS766T and MIA-PaCa2); experiment: MMP activity in primary orthotopic tumors (fluorogenic substrate); format: in vivo, nude nu/nu mice; settings: 100 and 250 mg/Kg, day 30
Protocol: as §3
(§8) When mice were sacrificed at day 30, primary tumors were collected. For extraction of total protein, the tumor was soaked with lysis buffer and homogenized using TissueRuptor (QIAGEN); the supernatant was collected. Total RNA was extracted using FastRNA pro green kit (MP Biomedicals, Solon, OH) following the manufacturer's instructions. MMP activity, gelatin hydrolyzing MMP activity and the mRNA and protein levels of MMP-9 were determined as mentioned above.

MMP-9 [16] = experiment: MMP-9 mRNA in primary tumors (qRT-PCR); format: in vivo, nude nu/nu mice; settings: tumors harvested at day 30
Protocol: as §5, §8

MMP-9 [17] = experiment: MMP-9 protein in primary tumors (ELISA); format: in vivo, nude nu/nu mice; settings: tumors harvested at day 30
Protocol: as §4, §8

MMP-9 [18] = experiment: zymography of primary tumors; format: in vivo, nude nu/nu mice; settings: tumors harvested at day 30
Protocol: as §6, §8

[19] = oral, every 6 hours at 60 to 90 mg/kg of body weight per day; cited from earlier work
[20] = cited from earlier work

T1 sequence (P39900 106-470): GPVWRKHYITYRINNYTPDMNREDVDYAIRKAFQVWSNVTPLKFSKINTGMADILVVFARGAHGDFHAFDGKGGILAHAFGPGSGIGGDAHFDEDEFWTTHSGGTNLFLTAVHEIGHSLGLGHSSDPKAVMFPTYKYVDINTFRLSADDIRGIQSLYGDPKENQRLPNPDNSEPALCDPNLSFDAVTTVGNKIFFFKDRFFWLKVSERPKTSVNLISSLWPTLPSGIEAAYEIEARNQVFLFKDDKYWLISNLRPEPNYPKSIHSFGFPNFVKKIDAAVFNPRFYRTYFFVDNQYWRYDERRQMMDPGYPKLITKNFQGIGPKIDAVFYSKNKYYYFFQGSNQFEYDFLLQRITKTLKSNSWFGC

SMILES: CNC(=O)[C@H](Cc1ccccc1)NC(=O)[C@H](CC(C)C)[C@H](CSc1cccs1)C(=O)NO [Batimastat]
- IC50 (MMP-12 [1]): 12 nM
- oral bioavailability [2]: poor oral bioavailability

SMILES: NCCS [Cysteamine]
- IC50 (MMPs): 38 to 460 µM
- lowest concentration that significantly inhibited cell invasion ([3]; all 10 pancreatic cancer cell lines, 24 hours): 0.05 mM
- concentration that sufficiently inhibited cancer cell invasion in vitro ([3]; in vitro): 50 µM
- concentration at which cell migration was significantly inhibited ([4]; all 10 cell lines, 24 hours): ≥ 0.05 mM
- concentration that sufficiently inhibited cancer cell migration in vitro ([4]; in vitro): 50 µM
- concentration showing cell toxicity (HS766T [5]): > 12.5 mM
- concentration showing cell toxicity (MIA-PaCa2 [6]; MIA-PaCa2, 24 and 48 hour treatment, viable cell count): > 12.5 mM
- concentrations that caused no toxicity to cells (abstract) (MIA-PaCa2 [6]; cells not named in the abstract, viability tested in MIA-PaCa2): < 25 mM
- total MMP activity in treated cells [7]: inhibited MMP activity
- MMP-9 protein level (MMP-9 [8]): modestly increased
- MMP-9 mRNA level (MMP-9 [9]): modestly increased
- MMP-12 mRNA (MMP-12 [10]): modest increase
- MMP-14 mRNA (MMP-14): modest increase
- zymographic gelatin hydrolyzing activity, pro and active MMP-9 (MMP-9 [11]): decreased significantly in a dose dependent manner
- HS766T metastasis number, average (HS766T [12]; 250mg/kg s.c., day 30, lesions ≥ 5 mm, average of 5 mice): 3.6
- decrease of the number of metastases of HS766T tumor (HS766T [12]; 250 mg/kg/day s.c., day 30, versus control): ~90%
- development of ascites (HS766T [12]; HS766T model, 100 and 250 mg/kg/day): no mice developed ascites
- dose at which mouse survival time was significantly prolonged (HS766T [12]; HS766T model, Kaplan-Meier, s.c. twice a day from day 4): ≥ 100 mg/kg/day
- size and weight of the primary tumors, control versus treated groups (HS766T [12]; HS766T model, day 30): did not show any difference
- development of ascites (MIA-PaCa2 [13]; MIA-PaCa2 model, 100 and 250 mg/kg/day): no mice developed ascites
- dose at which mouse survival time was significantly prolonged (MIA-PaCa2 [13]; MIA-PaCa2 model, Kaplan-Meier, s.c. twice a day from day 4): ≥ 100 mg/kg/day
- size and weight of the primary tumors, control versus treated groups (MIA-PaCa2 [13]; MIA-PaCa2 model, day 30): did not show any difference
- decrease of the total weight of metastatic nodules of MIA-PaCa2 tumor (MIA-PaCa2 [13]; highest dose (250 mg/kg/day) s.c., day 30, versus control): ~90%
- organ toxicity by histological examination ([14]; liver, kidney, brain, heart, lung, day 30): no organ toxicity was detected
- dose tolerated without visible, biochemical or histological evidence of toxicity ([14]; mice, s.c.): up to 250 mg/kg/day
- serum alanine aminotransferase (ALT) ([14]; mouse, in vivo): no significant differences
- serum aldolase ([14]; mouse, in vivo): no significant differences
- serum creatine kinase (CK) ([14]; mouse, in vivo): no significant differences
- serum creatinine (Cr) ([14]; mouse, in vivo): no significant differences
- MMPs activity in primary orthotopic tumors [15]: decreased MMPs activity
- MMP-9 mRNA level in primary tumors (MMP-9 [16]): did not affect
- MMP-9 protein level in primary tumors (MMP-9 [17]): did not affect
- zymography for MMP-9, gelatinase activity in tumors (MMP-9 [18]): dose dependent decrease in gelatinase activity
- cysteamine plasma level [19]: ~50 µM
- adverse effects in subjects [20]: only gastrointestinal symptoms

SMILES: CNC(=O)[C@@H](NC(=O)[C@H](CC(C)C)[C@H](O)C(=O)NO)C(C)(C)C [marimastat]
- clinical toxicity ([20]; higher dosage, patients with breast cancer metastasis): high musculoskeletal toxicities
